Counter-ions that a name gives are not always drawn. Like-named read-outs stand apart in the source and are kept apart here.
Assays:
cdk4/cyclin D1 = cdk4/cyclin D1 (Homo sapiens, UniProt P11802); test: Cyclin-dependent kinase assay, cdk4/cyclin D1; format: biochemical; settings: cyclin D1/cdk4; GST-pRb substrate, 10 µM ATP
MDA-MB-435 = test: In vitro proliferation assay (MTT), MDA-MB-435; format: cell-based, human; settings: value (SD, n) where given, read-out: MB-435 Breast (IC50 µM)
How it was run: (§1)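 Tetrazolium (MTT) reduction measures live cells remaining after 3 days with test compound, following overnight attachment at 1000–2500 cells/well. Dye is taken up in DMSO and read at 570 nm.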

NCI-H460 = test: In vitro proliferation assay (MTT), NCI-H460; format: cell-based; settings: Homo sapiens, NCI-H460; MTT assay; value (SD, n) where given; read-out: H-460 Lung (IC50 µM)
Method: (§2) The proliferation of tumor cells can be measured using a tetrazolium salt-based assay known as the MTT (3-[4,5-Dimethylthiazol-2-yl]-2,5-diphenyltetrazolium bromide) assay. The proliferation test is performed essentially as described by Carmichael et al., Cancer Res. 47: 936-942, 1987. For the assay, the cell lines are plated onto 96 well plates at 1000 to 2500 cells/well (depending on the properties of the individual cell lines), left to attach and recover overnight. […] After 3 days, the cells are incubated with MTT dye (3-[4,5-Dimethylthiazol-2-yl]-2,5-diphenyltetrazolium bromide, Sigma # M5655, 10 mg/ml in Hank's Buffered Saline) to estimate the amount of live cells remaining vs. concentration for the test compounds. Specifically, MTT solution is added to a final concentration of […] and the plates incubated at 37 C for 2 to 4 hr. The MTT and culture medium is then removed from the cultures and 200 µl of DMSO is added to solubilize the dye from the cell layer. The absorbance at 570 nm is determined for each culture using a Spectramax plate reader (Molecular Devices).
(§3) IC50s were determined from the raw data from either the MTT or SRB assays.
All of the cell lines were obtained from American Type Tissue Collection, with the ATCC accession number in parentheticals. MCF-7 and MDA-MB-231 cells were grown in improved minimum essential medium (Biofluids) without phenol red, supplemented with 5 % fetal bovine serum, 0.01 mg/ml gentamicin and 3 mM L-glutamine. All of the other cell lines were grown in RPMI 1640 medium (Life Technologies) supplemented with 5 % fetal bovine serum, 0.01 mg/ml gentamicin and 3 mM L-glutamine TABLE 3

PC-3 = test: In vitro proliferation assay (MTT), PC-3; format: cell-based, human; settings: value (SD, n) where given, read-out: PC-3 Prostate (IC50 µM)
How it was run: as §1

Colo-205 = test: In vitro proliferation assay (MTT), Colo-205; format: cell-based; settings: Homo sapiens, COLO 205; MTT assay; value (SD, n) where given; read-out: Colo-205 Colon (IC50 µM)
Method: as §2, §3

cdk1/cyclin B = cdk1/cyclin B (Homo sapiens, UniProt P06493); test: Cyclin-dependent kinase assay, cdk1/cyclin B; settings: CDK1 IC50, nM, Histone H1, 10 µM ATP
Chain of cdk1/cyclin B (P06493 whole entry): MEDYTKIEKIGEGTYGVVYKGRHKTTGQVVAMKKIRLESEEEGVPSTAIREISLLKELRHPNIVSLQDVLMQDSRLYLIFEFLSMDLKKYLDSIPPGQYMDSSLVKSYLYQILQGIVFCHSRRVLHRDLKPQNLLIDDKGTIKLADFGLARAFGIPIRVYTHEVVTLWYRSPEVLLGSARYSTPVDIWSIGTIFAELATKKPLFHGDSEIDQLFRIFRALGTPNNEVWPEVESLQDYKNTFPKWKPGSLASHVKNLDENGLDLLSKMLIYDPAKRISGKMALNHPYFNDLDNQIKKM
Chain of cdk1/cyclin B (P14635 whole entry partner): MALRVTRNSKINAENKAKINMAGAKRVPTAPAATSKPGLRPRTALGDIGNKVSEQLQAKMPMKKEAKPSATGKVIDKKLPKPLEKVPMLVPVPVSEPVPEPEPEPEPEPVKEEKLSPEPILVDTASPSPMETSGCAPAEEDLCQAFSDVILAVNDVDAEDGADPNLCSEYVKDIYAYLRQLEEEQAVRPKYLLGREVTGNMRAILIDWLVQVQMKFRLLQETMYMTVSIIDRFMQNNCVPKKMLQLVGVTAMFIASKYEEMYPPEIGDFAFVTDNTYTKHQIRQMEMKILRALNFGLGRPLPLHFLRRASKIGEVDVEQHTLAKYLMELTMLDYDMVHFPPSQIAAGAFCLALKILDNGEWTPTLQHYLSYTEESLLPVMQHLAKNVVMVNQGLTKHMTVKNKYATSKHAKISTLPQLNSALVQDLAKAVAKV

cdk2/cyclin E = cdk2/cyclin E (Homo sapiens, UniProt P24941); test: Cyclin-dependent kinase assay, cdk2/cyclin E; settings: CDK2 IC50, nM, GST-pRb substrate, 10 µM ATP
[1] = Homo sapiens, MDA-MB-435, MTT assay

Chain of cdk4/cyclin D1 (P11802 whole entry): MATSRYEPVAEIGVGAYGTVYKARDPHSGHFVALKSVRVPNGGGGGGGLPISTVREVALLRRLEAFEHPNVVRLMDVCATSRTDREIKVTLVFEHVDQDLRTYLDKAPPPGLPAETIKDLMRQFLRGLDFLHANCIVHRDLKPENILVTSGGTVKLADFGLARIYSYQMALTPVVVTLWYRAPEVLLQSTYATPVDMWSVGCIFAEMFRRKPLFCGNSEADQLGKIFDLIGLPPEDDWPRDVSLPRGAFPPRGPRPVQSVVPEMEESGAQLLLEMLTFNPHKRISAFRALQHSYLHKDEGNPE
Chain of cdk4/cyclin D1 (P24385 whole entry partner): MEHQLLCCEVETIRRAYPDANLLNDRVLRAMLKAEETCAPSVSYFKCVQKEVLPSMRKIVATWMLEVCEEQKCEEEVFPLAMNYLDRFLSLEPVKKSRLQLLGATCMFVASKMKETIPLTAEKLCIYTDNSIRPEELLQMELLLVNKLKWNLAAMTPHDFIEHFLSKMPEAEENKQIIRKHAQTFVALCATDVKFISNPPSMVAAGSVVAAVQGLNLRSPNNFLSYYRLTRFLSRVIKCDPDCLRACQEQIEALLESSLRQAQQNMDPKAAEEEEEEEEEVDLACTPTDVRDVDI

SMILES | IC50 (cdk4/cyclin D1) [nM] | IC50 (MDA-MB-435; [1]) [µM] | IC50 (NCI-H460) [µM] | IC50 (PC-3; Homo sapiens, PC-3, MTT assay) [µM] | IC50 (Colo-205) [µM] | IC50 (cdk1/cyclin B) [nM] | IC50 (cdk2/cyclin E) [nM] | IC50 (MDA-MB-435; MTT assay, dihydrochloride) [µM] | IC50 (PC-3; MTT assay, dihydrochloride) [µM]
CCC(C(=O)N1CCC(Nc2nc(N[C@H]3CC[C@H](N)CC3)nc3c2ncn3C2CCCC2)CC1)c1ccccc1 (relative stereo) [compound 41, trans-1-{4-[2-(4-Amino-cyclohexylamino)-9-cyclopentyl-9H-purin-6-ylamino]-piperidin-1-yl}-2-phenyl-butan-1-one dihydrochloride] | 404 | 0.3 | 0.31 | 0.38 | 0.11 | 59 | 93 | – | –
N[C@H]1CC[C@H](Nc2nc(NC3CCN(C(=O)c4ccc(F)cc4)CC3)c3ncn(C4CCCC4)c3n2)CC1 [compound 1, trans-1-{4-[2-(4-Amino-cyclohexylamino)-9-cyclopentyl-9H-purin-6-ylamino]-piperidin-1-yl}-1-(4-fluoro-phenyl)-methanone dihydrochloride] | 555 | 0.69 | > 50 | 0.78 | > 50 | 64 | 98 | – | –
N[C@H]1CC[C@H](Nc2nc(NC3CCN(C(=O)c4cccc(Cl)c4)CC3)c3ncn(C4CCCC4)c3n2)CC1 [compound 6, trans-1-{4-[2-(4-Amino-cyclohexylamino)-9-cyclopentyl-9H-purin-6-ylamino]-piperidin-1-yl}-1-(3-chloro-phenyl)-methanone dihydrochloride] | 87 | – | 0.24 | – | < 0.02 | 160 | 201 | 0.44 | 1.2
COc1ccccc1C(=O)N1CCC(Nc2nc(N[C@H]3CC[C@H](N)CC3)nc3c2ncn3C2CCCC2)CC1 [compound 7, trans-1-{4-[2-(4-Amino-cyclohexylamino)-9-cyclopentyl-9H-purin-6-ylamino]-piperidin-1-yl}-1-(2-methoxy-phenyl)-methanone dihydrochloride] | 96 | 1.34 | 1.11 | 2.26 | < 0.02 | 399 | 487 | – | –
COc1ccc(C(=O)N2CCC(Nc3nc(N[C@H]4CC[C@H](N)CC4)nc4c3ncn4C3CCCC3)CC2)cc1 [compound 8, trans-1-{4-[2-(4-Amino-cyclohexylamino)-9-cyclopentyl-9H-purin-6-ylamino]-piperidin-1-yl}-1-(4-methoxy-phenyl)-methanone dihydrochloride] | 711 | 0.75 | 0.18 | 0.86 | 0.06 | 74 | 137 | – | –
N[C@H]1CC[C@H](Nc2nc(NC3CCN(C(=O)c4cccs4)CC3)c3ncn(C4CCCC4)c3n2)CC1 [compound 10, trans-1-{4-[2-(4-Amino-cyclohexylamino)-9-cyclopentyl-9H-purin-6-ylamino]-piperidin-1-yl}-1-thiophen-2-yl-methanone dihydrochloride] | 761 | 0.8 | 0.14 | 1.24 | < 0.02 | 49 | 57 | – | –
N[C@H]1CC[C@H](Nc2nc(NC3CCN(C(=O)COc4ccccc4)CC3)c3ncn(C4CCCC4)c3n2)CC1 [compound 28, trans-1-{4-[2-(4-Amino-cyclohexylamino)-9-cyclopentyl-9H-purin-6-ylamino]-piperidin-1-yl}-2-phenoxy-ethanone dihydrochloride] | 140 | 0.21 | 0.21 | 0.22 | 0.09 | 20 | 52 | – | –
N[C@H]1CC[C@H](Nc2nc(NC3CCN(C(=O)/C=C/c4cccc(C(F)(F)F)c4)CC3)c3ncn(C4CCCC4)c3n2)CC1 [compound 44, trans-(E)-1-{4-[2-(4-Amino-cyclohexylamino)-9-cyclopentyl-9H-purin-6-ylamino]-piperidin-1-yl}-3-(3-trifluoromethyl-phenyl)-propenone dihydrochloride] | – | 0.22 | 0.53 | 0.29 | 0.03 | – | 76 | – | –
CC(C)[C@@H]1CC[C@@H](C)C[C@H]1OC(=O)N1CCC(Nc2nc(N[C@H]3CC[C@H](N)CC3)nc3c2ncn3C2CCCC2)CC1 [compound 86, trans-4-[2-(4-Amino-cyclohexylamino)-9-cyclopentyl-9H-purin-6-ylamino]-piperidine-1-carboxylic acid (1R,2S,5R)-2-isopropyl-5-methyl-cyclohexyl ester dihydrochloride] | – | 0.52 | 0.4 | 0.69 | 0.29 | – | – | – | –

The remaining lines, values ahead:

IC50 (cdk4/cyclin D1) [nM] | IC50 (MDA-MB-435; [1]) [µM] | IC50 (NCI-H460) [µM] | IC50 (PC-3; Homo sapiens, PC-3, MTT assay) [µM] | IC50 (Colo-205) [µM] | IC50 (cdk1/cyclin B) [nM] | IC50 (cdk2/cyclin E) [nM] | IC50 (MDA-MB-435; MTT assay, dihydrochloride) [µM] | IC50 (PC-3; MTT assay, dihydrochloride) [µM] | SMILES
485 | 0.31 | 0.28 | 0.45 | < 0.02 | 76 | 154 | – | – | CC(CC(=O)N1CCC(Nc2nc(N[C@H]3CC[C@H](N)CC3)nc3c2ncn3C2CCCC2)CC1)CC(C)(C)C (mixture of isomers) [compound 45, (±)-trans-1-{4-[2-(4-Amino-cyclohexylamino)-9-cyclopentyl-9H-purin-6-ylamino]-piperidin-1-yl}-3,5,5-trimethyl-hexan-1-one dihydrochloride]
427 | 0.26 | 0.15 | 1.17 | < 0.02 | 48 | 92 | – | – | N[C@H]1CC[C@H](Nc2nc(NC3CCN(C(=O)c4ccc(C(F)(F)F)cc4)CC3)c3ncn(C4CCCC4)c3n2)CC1 [compound 2, trans-1-{4-[2-(4-Amino-cyclohexylamino)-9-cyclopentyl-9H-purin-6-ylamino]-piperidin-1-yl}-1-(4-trifluoromethyl-phenyl)-methanone dihydrochloride]
641 | 0.7 | 0.33 | 0.72 | 0.16 | 197 | 339 | – | – | N[C@H]1CC[C@H](Nc2nc(NC3CCN(C(=O)c4cnc5ccccc5n4)CC3)c3ncn(C4CCCC4)c3n2)CC1 [compound 4, trans-1-{4-[2-(4-Amino-cyclohexylamino)-9-cyclopentyl-9H-purin-6-ylamino]-piperidin-1-yl}-1-quinoxalin-2-yl-methanone dihydrochloride]
– | 0.43 | 0.27 | 0.66 | < 0.02 | – | – | – | – | N[C@H]1CC[C@H](Nc2nc(NC3CCN(C(=O)c4ccc5c(c4)OCO5)CC3)c3ncn(C4CCCC4)c3n2)CC1 [compound 5, trans-1-{4-[2-(4-Amino-cyclohexylamino)-9-cyclopentyl-9H-purin-6-ylamino]-piperidin-1-yl}-1-benzo[1,3]dioxol-5-yl-methanone dihydrochloride]
620 | 0.57 | 0.39 | 0.72 | 0.27 | 46 | 78 | – | – | COC(=O)c1ccc(C(=O)N2CCC(Nc3nc(N[C@H]4CC[C@H](N)CC4)nc4c3ncn4C3CCCC3)CC2)cc1 [compound 11, trans-4-(1-{4-[2-(4-Amino-cyclohexylamino)-9-cyclopentyl-9H-purin-6-ylamino]-piperidin-1-yl}-methanoyl)-benzoic acid methyl ester dihydrochloride]

Reference: patent EP1377579B1 (Aventis Pharmaceuticals Inc., priority 2000, dated 2002)
